Earlier results, collected in patent US20200354402A1, “PEPTIDE COMPOSITIONS AND RELATED METHODS” (Allegro Pharmaceuticals, LLC, priority 2017, published 2020).

System: ischemia-induced retinal neovascularization
Conditions: intravitreal injection; stated as known

R—G—E.TFA [Test Compound 21]
known activity of the control peptides: known to be inactive
